Structures are written as SMILES.

This is an account of results in US20230181564A1, “Potent Tetrahydroquinolone Eliminates Apicomplexan Parasites” (The University of Chicago, priority 2020, published 2023).

Experiment [1] relates to T. gondii EGS strain bradyzoites. The experiment in a line: In vitro challenge assay for EGS strain bradyzoites in HFF. It is filed as cell-based, Toxoplasma gondii. The conditions noted are these: 500 nM. How it is done: PBS Sol/Toxicity pH7.4 refers to solubility of the compound in Phosphate Buffered Saline (PBS) at pH7.4. […] Tachy/Brady IC50 was determined in studies in which cultures of parasites in HFF were treated with varying concentrations of the compound and there was 50% inhibition of the replication (number) of parasites. Parasites were RH-YFP expressing tachyzoites (Tachy) and EGS (Brady) strains. Studies of effects of inhibitors on HFF or on T.gondii tachyzoites were performed with triplicate wells in at least two biological replicate experiments. Studies of effects on bradyzoites were performed at least twice in at least two biological replicate experiments. Compounds with much less inhibition of mammalian than T. gondii cytochrome bc in the saffarine enzyme assay (indicated by **) provide potential to further develop compounds, if unanticipated toxicity occurs from JAG21. […]
Cells were fixed using 4% paraformaldehyde and stained with Fluorescein-labeled Dolichos Biflorus Agglutinin, DAPI, and BAG1. […] Effects of compounds were quantitated by counting cysts in controls and treated cultures. Dolichos staining delimited structures and single organisms that remained were counted in a representative field of view. This was then multiplied by a factor determined by the total area of the cover slip in order to estimate the number of cysts and organisms in each condition. […]

The target in experiment [2] is T1, P. falciparum bc1 complex cytochrome c reductase (Pfbc1) (Plasmodium falciparum, UniProt Q02768).
T1 construct: Parasite extract was then prepared by disruption with a sonicating probe; endogenous in cells; host or cells: P. falciparum 3D7 blood-stage parasites freed by saponin, sonicated extract
T1 sequence (Q02768 1-376): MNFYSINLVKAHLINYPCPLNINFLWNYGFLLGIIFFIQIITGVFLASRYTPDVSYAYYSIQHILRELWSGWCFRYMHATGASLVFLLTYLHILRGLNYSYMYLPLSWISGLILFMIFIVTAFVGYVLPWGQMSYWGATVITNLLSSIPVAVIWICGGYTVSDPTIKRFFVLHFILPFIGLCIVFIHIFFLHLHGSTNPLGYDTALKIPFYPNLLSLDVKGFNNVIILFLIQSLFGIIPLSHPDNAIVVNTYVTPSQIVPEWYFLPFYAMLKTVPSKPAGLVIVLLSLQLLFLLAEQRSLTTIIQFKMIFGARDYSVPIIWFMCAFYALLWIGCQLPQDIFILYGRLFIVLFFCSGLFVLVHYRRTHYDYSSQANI
The experiment in a line: Pfbc1 native assay (cytochrome c reduction by parasite extract). In kind it is biochemical. The conditions noted are these: atovaquone 1 μM positive control, mean±S.D., N=4. How it is done: Enzyme assays. P. falciparum 3D7 strain were obtained from the Liverpool School of Tropical Medicine. Protease cocktail inhibitor was obtained from Roche. Bradford protein assay dye reagent was obtained from Bio-Rad. All other reagents were obtained from Sigma-Aldrich. Decylubiquinol was produced as per Fisher et al. (2009). In brief, 25 mg of decylubiquinone were dissolved in 400 μl of nitrogen-saturated hexane. An equal volume of aqueous 1 M sodium dithionite was added, and the mixture vortexed until colorless. […] Concentrations of decylubiquinol was determined spectrophotometrically on a Cary 300 Bio UV/visible spectrophotometer (Varian, UK) from absolute spectra, using ε288-320=8.1 mM-1·cm^−1. […]
The protocol for the preparation of parasite extract was adapted from Fisher et al. Free parasites were prepared from infected erythrocytes pooled from five T75 flasks, by adding 5 volumes of 0.15% (w/v) saponin in phosphate-buffered saline (137 mM NaCl, 2.7 mM KCl, 1.76 mM K2HPO4, 8.0 mM Na2HPO4, 5.5 mM D-glucose, pH 7.4) for 5 min, followed by three washes by centrifugation in RPMI containing HEPES (25 mM), and a final resuspension in potassium phosphate buffer (50 mM K2HPO4, 50 mM KH2PO4, 2 mM EDTA, pH7.4) containing a protease inhibitor cocktail (Complete Mini; Roche). […] The protein concentration of the parasite extract was determined by Bradford protein assay (Bio-Rad). […]

Regarding `Cc1[nH]c2c(c(=O)c1-c1ccc(Oc3ccc(OC(F)(F)F)cc3)cc1)CCCC2` [JAG021, 2-methyl-3-(4-(4-(trifluoromethoxy)phenoxy)phenyl)-5,6,7,8-tetrahydroquinolin-4-one], in experiment [1], the “EGS bradyzoites in treated cultures” value is “not seen”. In addition, the inhibition at 1 µM in experiment [2] is 86.4 ± 3.2%.

In general, inhibition refers to the relative decrease from the control value, in per cent. A higher inhibition goes with a strong effect.
